In one experiment the test system is peroxidase. Kind of experiment: Peroxidase assay in saliva (Amplex Red). The class given is biochemical. The conditions noted are these: test compound at 500 ppm, pooled or unpooled saliva, 30 minutes; FIGS. 26-29. Here is the method:
To determine the effect of various GRAS compounds as inhibitors of peroxidase activity, a standard assay using Amplex® Red (Life Technologies), which releases a fluorescent oxidation product.
The test compounds, such as GRAS materials or cocktails of same, were prepared at a concentration of 500 ppm in distilled water. For the assay, 50 μl samples of test compounds were mixed with 20-30 μl of saliva (either “pooled” or “unpooled”) prior to the addition of Amplex® Red. […] Reactions were allowed to run for 30 minutes during these assays.

A further experiment has as its target T1, α-amylase (Homo sapiens, UniProt P0DUB6).
T1 sequence (P0DUB6 16-511): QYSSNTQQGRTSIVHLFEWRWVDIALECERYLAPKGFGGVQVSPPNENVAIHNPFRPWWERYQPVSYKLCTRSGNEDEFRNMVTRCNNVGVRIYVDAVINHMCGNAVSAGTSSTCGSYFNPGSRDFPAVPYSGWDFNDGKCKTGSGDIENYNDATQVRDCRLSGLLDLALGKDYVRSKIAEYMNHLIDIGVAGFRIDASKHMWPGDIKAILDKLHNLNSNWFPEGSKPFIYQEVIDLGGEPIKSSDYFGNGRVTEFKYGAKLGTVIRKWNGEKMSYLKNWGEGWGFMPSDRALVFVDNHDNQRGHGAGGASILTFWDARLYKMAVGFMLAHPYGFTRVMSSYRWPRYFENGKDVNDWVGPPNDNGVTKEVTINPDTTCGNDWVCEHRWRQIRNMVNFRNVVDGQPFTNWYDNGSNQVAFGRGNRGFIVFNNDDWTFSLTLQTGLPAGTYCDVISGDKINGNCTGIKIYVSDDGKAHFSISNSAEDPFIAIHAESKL
Kind of experiment: α-Amylase inhibition saliva screening (2-chloro-p-nitrophenol-maltotriose substrate, 405 nm). The class given is biochemical. The conditions noted are these: for Ave (reading, absorbance at 405 nm) / reading (absorbance at 405 nm), single replicates: test compound prepared at 5,000 ppm, 37° C., control column '100% Saliva'; for inhibition of α-Amylase: 100% saliva samples, FIG. 11; for α-Amylase Inhibitor Activity: dilute (3.5%) saliva, FIG. 10. The text has this:
Further details of these five compounds may also be seen in Table 4.

The next experiment addresses T2, lysozyme (Homo sapiens, UniProt P61626).
T2 sequence (P61626 19-148): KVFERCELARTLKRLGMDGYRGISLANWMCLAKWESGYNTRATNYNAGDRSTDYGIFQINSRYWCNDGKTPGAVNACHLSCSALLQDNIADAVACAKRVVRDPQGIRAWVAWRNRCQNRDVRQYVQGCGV
Description: Lysozyme inhibition saliva screening (fluorescein-labeled Micrococcus lysodeikticus). In kind it is biochemical. The conditions noted are these: 100% saliva samples (data not shown). An excerpt:
Further details of these five compounds may also be seen in Table 5.

Another experiment has as its system protease. The conditions noted are these: natural protease inhibitor; Table II; cited from earlier work.

The source of these data is patent US20110195402A1, “SYSTEMS AND METHODS FOR DETECTING DRUG USE” (priority 2010, published 2011).

Values joined by “and” are separate entries in the source; they are usually repeats but may differ in a detail not shown here. Equal values may be shown once.

On to `Cn1c(=O)c2c(ncn2C)n(C)c1=O` [CDI-33, Caffeine], for which the peroxidase inhibition result with peroxidase was “significant peroxidase inhibition capabilities”.
Still for that read-out and setting: with `COc1ccc(O)c(C(C)(C)C)c1` [CDI-39, 3-tert--butyl-hydroxyanisole] the entry was “significant peroxidase inhibition capabilities”.
As for Aluminum sulfate hydrate [CDI-34], the “Ave (reading, absorbance at 405 nm)” value came out at 0.40 on α-amylase (0 min), 0.50 on α-amylase (5 min) and 0.56 at α-amylase (15 min). Besides, the “reading (absorbance at 405 nm), single replicates” value (“reading (absorbance at 405 nm)” for short) was 0.40 (2×) and 0.36 and 0.45 on α-amylase (0 min, sulfate hydrate); 0.49 and 0.50 (2×) and 0.52 at α-amylase (5 min, sulfate hydrate); 0.53 and 0.61 and 0.54 and 0.56 on α-amylase (15 min, sulfate hydrate). The “inhibition of α-Amylase” value on α-amylase is reported as “inhibit α-Amylase”. Also, the “α-Amylase Inhibitor Activity” value on α-amylase is recorded as “α-Amylase Inhibitor Activity”.
As to “Aluminum potassium sulfate dodecahydrate [CDI-42]”, the peroxidase inhibition result in the experiment with peroxidase is on record as “significant peroxidase inhibition capabilities”. In addition, at α-amylase (0 min), the “Ave (reading, absorbance at 405 nm)” value is 0.92; the “reading (absorbance at 405 nm)” value is 0.80 and 1.13 and 0.90 and 0.84. For the same molecule, on α-amylase, the “inhibition of α-Amylase” value is on record as “inhibit α-Amylase” and the “α-Amylase Inhibitor Activity” value is “α-Amylase Inhibitor Activity”. Besides, at α-amylase (5 min), the “Ave (reading, absorbance at 405 nm)” value worked out at 1.85; the “reading (absorbance at 405 nm)” value is 1.65 and 2.15 and 1.80 and 1.81. For the same molecule, on α-amylase (15 min), the “Ave (reading, absorbance at 405 nm)” value is on record as 2.29; the “reading (absorbance at 405 nm)” value is 2.37 and 2.38 and 2.25 and 2.17.
Turning to `O=C(O)c1ccccc1` [CDI-40, Benzoic acid], at lysozyme, the “inhibition of Lysozyme” value is given as “inhibit Lysozyme”.

B1: Soybeans: primary soybean protease inhibitor, 20.7-22.3 kDa (protein, UniProt P01070 25-205, looked up)
Trypsin inhibitor A: DFVLDNEGNPLENGGTYYILSDITAFGGIRAAPTGNERCPLTVVQSRNELDKGIGTIISSPYRIRFIAEGHPLSLKFDSFAVIMLCVGIPTEWSVVEDLPEGPAVKIGENKDAMDGWFRLERVSDDEFNNYKLVFCPQQAEDDKCGDIGISIDHDDGTRRLVVSKNKPLVVQFQKLDKESL
B1: in the experiment with protease, the Inhibitory power is 1.2 times times weight.
